Assay results published in publication PMC3763849 (ACS medicinal chemistry letters, 2013).
“Also recorded” adds a separate entry of the source.

Tests used:
PBM cells = assay: Cellular pharmacology in PBM cells: intracellular nucleoside triphosphate levels; format: in vitro ADME, human
HIV-1LAI = assay: HIV-1 susceptibility assay in human PBM cells infected with HIV-1LAI; format: cell-based; conditions: for fold greater potency versus HIV-1 compared to parent nucleoside: phosphoramidate versus parent nucleoside
[1] = tested on: five tested cell lines (PBM, HepG2, Huh7, Vero, CEM); assay: Cytotoxicity across the five tested cell systems; format: cell-based
HBV = assay: Antiviral activity against HBV in the HepAD38 cell system; format: cell-based

| SMILES | formation of dioxolane-A triphosphate (PBM cells) | fold greater potency versus HIV-1 compared to parent nucleoside (HIV-1LAI) | also measured |
| --- | --- | --- | --- |
| Nc1ncnc2c1ncn2[C@H]1CO[C@@H](CO)O1 [Compound 6, (−)-β-D-(2R,4R)-6-amino dioxolane adenosine] | found to form the dioxolane-A triphosphate |  |  |
| OC[C@@H]1OC[C@H](n2cnc3c(NC4CC4)ncnc32)O1 [Compound 8] |  |  | activity versus HIV (HIV-1LAI): essentially not active; cytotoxicity in the five tested cell lines [1]: did not display any cytotoxicity; activity versus HBV (HBV): essentially not active |
| CCOC(=O)[C@H](C)NP(=O)(OC[C@@H]1OC[C@H](n2cnc3c(N)ncnc32)O1)Oc1ccccc1 (stereo partly drawn) [Compound 17] | found to form the dioxolane-A triphosphate; also recorded: highest levels of dioxolane-A triphosphate | up to 3,600 fold |  |
| CCOC(=O)CCc1ccccc1OP(=O)(N[C@@H](C)C(=O)OCC)OC[C@@H]1OC[C@H](n2cnc3c(N)ncnc32)O1 (stereo partly drawn) [Compound 18] | found to form the dioxolane-A triphosphate; also recorded: highest levels of dioxolane-A triphosphate | up to 3,600 fold |  |
| CCOC(=O)[C@H](C)NP(=O)(OC[C@@H]1OC[C@H](n2cnc3c(OC)ncnc32)O1)Oc1ccccc1 (stereo partly drawn) [Compound 19] |  | up to 3,600 fold |  |
| CCOC(=O)CCc1ccccc1OP(=O)(N[C@@H](C)C(=O)OCC)OC[C@@H]1OC[C@H](n2cnc3c(OC)ncnc32)O1 (stereo partly drawn) [Compound 20] |  | up to 3,600 fold |  |
| CCOC(=O)[C@H](C)NP(=O)(OC[C@@H]1OC[C@H](n2cnc3c(NC4CC4)ncnc32)O1)Oc1ccccc1 (stereo partly drawn) [Compound 22] | found to form the dioxolane-A triphosphate | up to 3,600 fold | cytotoxicity in the five tested cell lines [1]: no observed cytotoxicity |
| CCOC(=O)CCc1ccccc1OP(=O)(N[C@@H](C)C(=O)OCC)OC[C@@H]1OC[C@H](n2cnc3c(NC4CC4)ncnc32)O1 (stereo partly drawn) [Compound 23] | found to form the dioxolane-A triphosphate |  |  |
| Nc1nc(N)c2ncn([C@H]3CO[C@@H](CO)O3)c2n1 [DAPD, Amdoxovir, reference compound] |  |  | activity versus HBV (HBV): low micromolar |
